Experimental data: patent publication US5010104A, “Tricyclic compounds” (Kyowa Hakko Kogyo Co., Ltd., priority 1987, dated 1991)

Columns and labels:
[1] = molecular target: T1, TXA2 /prostaglandin H2 receptor (Cavia porcellus, UniProt A0A286Y4I8); assay: Test on Anti-platelet Activity (TXA2 Antagonizing Test): inhibition of U-46619-induced platelet aggregation in guinea pig platelet rich plasma; assay type: cell-based; conditions: minimum concentration inhibiting platelet aggregation by 30% or more; U-46619 0.5-1 μM; guinea pig PRP; 3 minutes pretreatment
T1 construct: platelet rich plasma (PRP) was collected; endogenous in cells; host or cells: platelets in platelet rich plasma from male guinea pigs (Hartley strain)
T1 sequence (A0A286Y4I8 1-347): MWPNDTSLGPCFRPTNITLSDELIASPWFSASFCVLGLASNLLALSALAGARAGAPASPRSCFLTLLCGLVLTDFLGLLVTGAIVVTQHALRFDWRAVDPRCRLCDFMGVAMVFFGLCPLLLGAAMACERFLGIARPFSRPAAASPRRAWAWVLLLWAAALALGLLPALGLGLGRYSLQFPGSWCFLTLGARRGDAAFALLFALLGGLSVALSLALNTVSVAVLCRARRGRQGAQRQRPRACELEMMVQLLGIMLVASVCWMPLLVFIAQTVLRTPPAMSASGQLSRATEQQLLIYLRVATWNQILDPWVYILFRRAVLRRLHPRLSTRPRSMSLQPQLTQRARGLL
Protocol: Test on Anti-platelet Activity (TXA2 Antagonizing Test)
Using guinea pig platelet, influence of the compounds in accordance with the present invention on platelet aggregation induced by U-46619 (9,11-dideoxy-9α,11a-methanoepoxyprostaglandin F2 α; manufactured by Cayman Chemica Co., Ltd. ) which was a TXA2 /prostaglandin H2 receptor stimulant was examined.
Male guinea pig (Hartlet strain; body weight, 300 to 600 g) was anesthesized by intraperitoneal administration of sodium pentobarbital (30 mg/kg) and blood was collected from the descending aorta of the abdomen with a 1/10 volume of sodium citrate. By centrifugation (KC-70: manufactured by Kubota Co., Ltd.) at 800 rpm for 10 minutes, platelet rich plasma (PRP) was collected. Platelet aggregation induced by U-46619 (0.5-1 μM) was determined by photometry [Born, G. V. R. et al., Nature (London), 194, 927-929 (1962)]. A test compound was pretreated before 3 minutes and an ability of inhibiting aggregation was measured. The minimum concentration of inhibiting platelet aggregation by 30% or more was defined as the minimum effective concentration (MEC) of the test compound.

dd strain male mice = assay: Acute Toxicity Test: minimum lethal dose, mortality observed for seven days; assay type: in vivo; conditions: mortality over seven days; for Acute Toxicity (MLD) ip: intraperitoneal (ip; 100 mg/kg); for Acute Toxicity (MLD) po: oral (po; 300 mg/kg)
Protocol: Using three dd strain male mice weighing 20±1 g, a test compound was orally (po; 300 mg/kg) or intraperiotoneally (ip; 100 mg/kg) administered. MLD (the minimum lethal dose) was determined by observing the mortality for seven days after administration.

| SMILES | TXA2 Antagonizing Activity (MEC) [1] | Acute Toxicity (MLD) ip (dd strain male mice) | Acute Toxicity (MLD) po (dd strain male mice) |
| --- | --- | --- | --- |
| O=C(O)COc1ccc(CCNS(=O)(=O)c2ccccc2)cc1 [BM13177, reference compound] | 3 µg/mL | > 100 mg/kg | > 300 mg/kg |
| O=C(O)c1ccc2c(c1)C(SCCNS(=O)(=O)c1ccccc1)c1cc(Br)ccc1CO2 (stereo not drawn) [Compound 6b, 9-Bromo-11-[2-[(phenylsulfonyl)amino]ethyl]thio-6,11-dihydrodibenz[b,e]oxepin-2-carboxylic acid] | 0.03 µg/mL | > 100 mg/kg | > 300 mg/kg |
| O=C(O)c1ccc2c(c1)C(SCCNS(=O)(=O)c1ccc(F)cc1)c1ccccc1CO2 (stereo not drawn) [Compound 10b, 11-[2-[(4-Fluorophenylsulfonyl)amino]ethyl]thio-6,11-dihydrodibenz[b,e]oxepin-2-carboxylic acid] | 0.3 µg/mL | > 100 mg/kg | > 300 mg/kg |
| O=C(O)c1ccc2c(c1)C(SCCNS(=O)(=O)c1cccs1)c1ccccc1CO2 (stereo not drawn) [Compound 15b, 11-[2-[(2-Thienylsulfonyl)amino]ethyl]thio-6,11-dihydrodibenz[b,e]oxepin-2-carboxylic acid] | 0.3 µg/mL | > 100 mg/kg | > 300 mg/kg |
| O=C(O)c1ccc2c(c1)C(SCCNS(=O)(=O)c1cccc3cccnc13)c1ccccc1CO2 (stereo not drawn) [Compound 16b, 11-[2-[(8-Quinolylsulfonyl)amino]ethyl]thio-6,11-dihydrodibenz[b,e]oxepin-2-carboxylic acid] | 3 µg/mL | > 100 mg/kg | > 300 mg/kg |
| COc1ccccc1C(=O)NCCSC1c2ccccc2COc2ccc(C(=O)O)cc21 (stereo not drawn) [Compound 33b, 11-[2-[(2-Methoxybenzoyl)amino]ethyl]thio-6,11-dihydrodibenz[b,e]oxepin-2-carboxylic acid] | 0.3 µg/mL | > 100 mg/kg | > 300 mg/kg |
| O=C(O)c1ccc2c(c1)C(SCCNS(=O)(=O)c1ccccc1)c1ccccc1CS2 (stereo not drawn) [Compound 55b, 11-[2-[(Phenylsulfonyl)amino]ethyl]thio-6,11-dihydrodibenzo[b,e]thiepin-2carboxylic acid] | 3 µg/mL | > 100 mg/kg | > 300 mg/kg |
| O=C(O)Cc1ccc2c(c1)/C(=C/CCNS(=O)(=O)c1ccccc1)c1ccccc1CO2 [Compound E-29b] | 1 µg/mL | > 100 mg/kg | > 300 mg/kg |
